The values below come from ChEMBL document CHEMBL3124895, “Fragment-based discovery of potent inhibitors of the anti-apoptotic MCL-1 protein” (Bioorg Med Chem Lett, 2014).

Chain of Induced myeloid leukemia cell differentiation protein Mcl-1 (Q07820 whole entry): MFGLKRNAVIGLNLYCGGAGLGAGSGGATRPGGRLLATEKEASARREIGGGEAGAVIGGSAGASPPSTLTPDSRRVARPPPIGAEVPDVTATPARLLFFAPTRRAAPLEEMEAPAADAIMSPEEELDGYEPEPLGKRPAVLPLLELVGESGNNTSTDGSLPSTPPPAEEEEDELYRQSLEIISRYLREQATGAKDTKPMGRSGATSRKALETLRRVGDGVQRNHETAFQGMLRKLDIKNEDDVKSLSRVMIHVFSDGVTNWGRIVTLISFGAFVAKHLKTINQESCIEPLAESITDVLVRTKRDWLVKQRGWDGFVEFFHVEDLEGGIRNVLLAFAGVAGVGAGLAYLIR

This assay has as its target Induced myeloid leukemia cell differentiation protein Mcl-1 (Homo sapiens, UniProt Q07820). In words: Inhibition of human recombinant MCL-1 (174 to 236) expressed in Escherichia coli BL21(DE3) using 6FAM-GELEVEFATQLRRFGDKLN as substrate after 15 mins by fluorescence polarization Assay. On the technique in general: In fluorescence polarisation assays a small probe gives low polarisation when free and higher when bound to something large.
As for `O=C(O)c1cc(-c2ccccc2OCc2ccccc2Cl)ccc1O`, the IC50 stood at 0.78 µM.

On to `Cc1ccc(-c2ccc(C(=O)O)c(NS(=O)(=O)c3ccccc3)c2)cc1`, for which the concentration for half-maximal inhibition (IC50) was 4.9 µM. Then `CS(=O)(=O)Nc1ccccc1-c1ccc(O)c(C(=O)O)c1`, with 45 µM; and `Cc1ccc(-c2ccc(O)c(C(=O)O)c2)cc1`, with 73 µM; and `O=C(O)c1cc(-c2ccccc2COc2cccc(C(F)(F)F)c2)ccc1O`, with 0.67 µM. For the compound `Cc1ccc(-c2ccc(C(=O)O)c(NS(=O)(=O)c3ccc(OCCCN4CCOCC4)cc3)c2)c2ccccc12`, the IC50 was determined as 0.06 µM. Then `CCC(C)c1ccc(S(=O)(=O)Nc2cc(-c3ccc(C)c4ccccc34)ccc2C(=O)O)cc1` (stereo not given), with 1.2 µM; and `Cc1ccc(-c2ccc(O)c(C(=O)O)c2)cc1C`, with 6.2 µM; and `Cc1ccc(-c2ccc(C(=O)O)c(NS(=O)(=O)c3ccc(C(=O)N(C)C)cc3)c2)c2ccccc12`, with 0.08 µM. Consider `Nc1cccc(-c2ccc(O)c(C(=O)O)c2)c1`, for which the IC50 was 190 µM. As for `CN(C)c1cccc2ccc(O)cc12`, the IC50 amounted to 280 µM.

Consider `Cc1ccccc1-c1ccc(O)c(C(=O)O)c1`, for which the IC50 came to 22 µM. As for `Oc1nc2c(ccc3ccccc32)o1`, the IC50 stood at 130 µM. Take `O=C(O)c1cc(-c2ccccc2OCc2ccccc2)ccc1O`: the IC50 was determined as 7.2 µM. Then `O=C(O)c1ccc(-c2cccc3ncccc23)cc1NS(=O)(=O)c1ccccc1`, with 37 µM.

Turning to `O=C(O)c1cc(-c2ccc3ncccc3c2)ccc1O`, the IC50 was determined as 22 µM. Then `CCCCCc1ccc(S(=O)(=O)Nc2cc(-c3ccc(C)c4ccccc34)ccc2C(=O)O)cc1`, with 0.3 µM; and `O=C(O)c1cc(-c2ccccc2COc2cccc3ccccc23)ccc1O`, with 0.57 µM. With `O=C1CC(c2cccc(C(F)(F)F)c2)=NN1`, the IC50 turned out to be 70 µM. For `O=C(O)c1ccc(-c2cccc3ccccc23)cc1NS(=O)(=O)c1ccccc1`, the IC50 is 1 µM. For the compound `CCCCOc1ccc(F)c(-c2ccc(O)c(C(=O)O)c2)c1`, the IC50 was 1.1 µM. Take `O=C(O)c1cc(-c2ccc(OCc3ccccc3)cc2)ccc1O`: the IC50 came to 2.2 µM. Take `CCCc1ccc(-c2ccc(O)c(C(=O)O)c2)cc1`: the IC50 came out at 3.3 µM. With `Cc1ccc(-c2ccc(C(=O)O)c(NS(=O)(=O)c3cccc(N4CCOCC4)c3)c2)c2ccccc12`, the IC50 came to 0.2 µM. Regarding `C=Cc1ccc(C(=O)OCC)c(NS(=O)(=O)c2ccccc2)c1`, the IC50 stood at 3.4 µM. On to `O=C(O)c1cc(-c2cccc3ccccc23)ccc1O`, for which the IC50 was determined as 31 µM. For `Cc1ccc(-c2ccc(C(=O)O)c(NS(=O)(=O)c3ccccc3)c2)c2ccccc12`, the IC50 is 0.4 µM.

As to `Cc1ccc(-c2ccc(C(=O)O)c(NS(=O)(=O)c3ccc(Oc4ccccc4)cc3)c2)c2ccccc12`, the IC50 was determined as 0.5 µM. `O=C(O)c1cc(-c2ccccc2)ccc1O`: the IC50 stood at 34 µM. Then `Cc1ccc(S(=O)(=O)Nc2ccccc2-c2ccc(O)c(C(=O)O)c2)cc1`, with more than 25 µM; and `Cc1ccc(-c2ccc(C(=O)O)c(NS(=O)(=O)c3ccc(N4CCOCC4)cc3)c2)c2ccccc12`, with 0.11 µM. On to `CC(C)(C)OCc1ccccc1-c1ccc(O)c(C(=O)O)c1`, for which the IC50 was more than 25 µM.

In the case of `Cc1ccc(-c2ccc(C(=O)O)c(NS(=O)(=O)c3ccc(NC(=O)NCC(C)C)cc3)c2)c2ccccc12`, the IC50 was determined as 0.15 µM. On to `Cc1cccc(-c2ccc(C(=O)O)c(NS(=O)(=O)c3ccccc3)c2)c1`, for which the IC50 is 1.8 µM.

On to `Cc1ccc(-c2ccc(C(=O)O)c(NS(=O)(=O)c3ccc(OCCn4cccn4)cc3)c2)c2ccccc12`, for which the IC50 came out at 0.03 µM.

As a reminder, the IC50 is the concentration at which inhibition is half-maximal.
